Assay results taken from article PMC10179352, “Clostridia and Enteroviruses as Synergistic Triggers of Type 1 Diabetes Mellitus” (International Journal of Molecular Sciences, 2023).

Columns and labels:
INS = INS (Homo sapiens, UniProt P01308); conditions: ultraviolet spectrometry; derived from previous study; read-out: Binding Constants, INS; cited from earlier work
Text: (§1) Table 1 Summary of ultraviolet spectrometry experiments concerning binding of T cell receptor sequences expanded in type 1 diabetic patients (TCR DIA) to a COX peptide (Cox Pep) that mimics the INS receptor (Ins Rec), two Clostridium peptides (Clost Pep) that mimic INS, two INS receptor peptides identified by their amino acid sequence numbers, and INS itself. Gluc = glucagon-like sequence; GR = gl | column: INS

Clost Pep #2 = experiment: Ultraviolet spectrometry peptide binding; design: species or system Clostridium; conditions: estimated from inflection points of the curves, read-out: Binding Constants, Clost Pep #2
Text: (§2) Because some COX antigens mimic INSR sequences and some Clostridia antigens mimic INS, we synthesized several microbial peptide sequences that mimicked these human proteins and used ultraviolet spectroscopy to determine whether they bound to each other, as would be the case if they were complementary antigens. Figure 12 provides the peptide sequences and their similarities to either INS or INSR. Clostridium similarities to the INS A chain were specifically chosen because the role of the A chain in the induction of T1DM is generally ignored in favor of the B chain.
(§3) Previous investigators have sequenced the T cell receptor (TCR) sequences that are expanded in T1DM patients with particular specificities for INS or INSR [61, 62]. […] TCR 1, 2, and 4 were from one patient; TCR 8, 9, and 10 were from a second patient; and TCR K2.4, K2.12, and K2.16 were from a third. Ultraviolet light spectrometry was used to determine whether each TCR sequence recognized the COX and Clostridia peptides used in the previous set of experiments (Figure 12). The results are shown in Table 1, Figure 13, and Appendix F.

Clost Pep #3 = experiment: Ultraviolet spectrometry peptide binding; design: species or system Clostridium; conditions: estimated from inflection points of the curves, read-out: Binding Constants, Clost Pep #3
Text: as §2, §3

Ins Rec 105–118 = conditions: ultraviolet spectrometry; derived from previous study; read-out: Binding Constants, Ins Rec 105–118; cited from earlier work
Text: as §1, with “column: Ins Rec 105–118” for “column: INS”

[1] = target: Cox Pep #1 (COX peptide that mimics the INS receptor); experiment: Ultraviolet spectrometry peptide binding; conditions: estimated from inflection points of the curves, read-out: Binding Constants, Cox Pep #1
Text: as §2, §3

Ins Rec 897–915 = conditions: ultraviolet spectrometry; derived from previous study; read-out: Binding Constants, Ins Rec 897–915; cited from earlier work
Text: as §1, with “column: Ins Rec 897–915” for “column: INS”

Sequence of INS (P01308 25-54): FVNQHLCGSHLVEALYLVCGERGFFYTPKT
Sequence of INS (P01308 90-110): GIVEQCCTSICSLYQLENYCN

Compound	Kd (INS) [µM]	Kd (Clost Pep #2) [µM]	Kd (Clost Pep #3) [µM]	Kd (Ins Rec 105–118) [µM]	Kd [1] [µM]	Kd (Ins Rec 897–915) [µM]
CC[C@H](C)[C@H](NC(=O)[C@@H](NC(=O)[C@H](C)NC(=O)[C@H](CC(C)C)NC(=O)[C@H](CO)NC(=O)[C@H](CO)NC(=O)[C@H](C)NC(=O)[C@@H](N)CS)C(C)C)C(=O)N[C@@H](CCCNC(=N)N)C(=O)N[C@H](C(=O)O)[C@@H](C)O (single isomer, unassigned) [TCR DIA 2, K2.16]	> 1000	–	–	–	–	–
CC(C)C[C@H](NC(=O)[C@H](C)NC(=O)[C@H](CO)NC(=O)[C@@H](N)CC(=O)O)C(=O)N[C@@H](Cc1ccc(O)cc1)C(=O)N[C@@H](CC(C)C)C(=O)N[C@@H](CS)C(=O)N[C@@H](C)C(=O)N[C@@H](CO)C(=O)N[C@@H](CO)C(=O)N[C@@H](CC(C)C)C(=O)NCC(=O)O (single isomer, unassigned) [TCR DIA 4,8,9]	> 1000	–	–	–	–	–
CASSIYLCSVEATRAD [TCR DIA 1]	80	100	100	125	400	300
